Measured values published in patent US10519106B2, “Urea derivative and use therefor” (Toray Industries, Inc., priority 2015, dated 2019).
Structures can show the parent of a compound that is named as a salt.

biological target: T1, intracellular domain of DDR1 (Homo sapiens, UniProt Q08345); test: Evaluation of DDR1 inhibition activity with HTRF KinEASE-TK kit; type: biochemical; conditions: intracellular domain of DDR1 5 ng/μL, ATP 25 mol/L (so in the source), TK Substrate-biotin 1000 nmol/L, room temperature, one hour
T1 construct: the intracellular domain of DDR1 (in a final concentration of 5 ng/μL) (Carna Biosciences, Inc.); purchased Carna Biosciences, Inc
T1 sequence (Q08345 444-876 isoform Q08345-2 limits assumed): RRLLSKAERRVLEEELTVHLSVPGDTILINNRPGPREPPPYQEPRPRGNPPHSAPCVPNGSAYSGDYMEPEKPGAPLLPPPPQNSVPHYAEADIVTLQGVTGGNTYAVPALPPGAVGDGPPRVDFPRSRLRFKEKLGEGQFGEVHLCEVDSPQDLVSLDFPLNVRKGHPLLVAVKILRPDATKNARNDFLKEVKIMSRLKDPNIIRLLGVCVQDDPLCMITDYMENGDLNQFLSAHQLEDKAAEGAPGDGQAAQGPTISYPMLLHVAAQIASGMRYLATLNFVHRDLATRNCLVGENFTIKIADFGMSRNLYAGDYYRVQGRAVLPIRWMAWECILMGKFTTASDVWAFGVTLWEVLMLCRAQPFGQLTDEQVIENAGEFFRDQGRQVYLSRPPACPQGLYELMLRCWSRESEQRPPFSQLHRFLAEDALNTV
Experimental: The DDR1 inhibition activity of the compounds of Examples 1 to 51 was evaluated with HTRF® KinEASE-TK kit (Cisbio Bioassays).
Each test substance was dissolved in dimethyl sulfoxide (hereinafter referred to as DMSO) and then used for the evaluation as described below. Moreover, each of test substances and reagents was diluted in the kinase buffer (Cisbio Bioassays) prepared by adding thereto MgCl2, MnCl2, DTT, and the Supplemental Enzyme buffer (Cisbio Bioassays) to concentrations of 5 mmol/L, 0.5 mmol/L, 0.25 mmol/L, and 50 nmol/L, respectively, and then used. Each test substance (in DMSO in a final concentration of 1%), the intracellular domain of DDR1 (in a final concentration of 5 ng/μL) (Carna Biosciences, Inc.), the phosphate donor ATP (in final concentration of 25 mol/L) (Sigma), and the substrate TK Substrate-biotin (in a final concentration of 1000 nmol/L) (Cisbio Bioassays) were added to a 384-well black plate (Corning) and allowed to react at room temperature for one hour. After completion of the reaction, the TK Antibody-Cryptate (Cisbio Bioassays) and the Streptavidin-XL665 (Cisbio Bioassays) were added thereto and allowed to react at room temperature for one hour. In addition, the plate was provided with a well to which a test substance was not added, and with a well to which the intracellular domain of DDR1 and a test substance were not added.
The fluorescence intensity in each well was measured using a multi-label counter (Envision, PerkinElmer; excitation wavelength: 320 nm, measurement wavelength: 665 nm and 620 nm) to calculate a Ratio (the fluorescence intensity at 665 nm/the fluorescence intensity at 620 nm). The inhibition rate (%) of a test substance at each concentration was calculated based on the formula below. Inhibition rate (%)=([the Ratio obtained from the well containing no test substance]−[the Ratio from a well containing a test substance])/([the Ratio obtained from the well containing no test substance]−[the Ratio obtained from the well containing no intracellular domain of DDR1 and no test substance])×100
The calculated inhibition rates were fitted to a sigmoidal dose-response curve by regression analysis using the Prism 5.04 (GraphPad Software, Inc.) to calculate the ICso0 value of the test substance.

Structure (SMILES)	IC50 [nM]
NC(=O)c1ccc(Oc2ccccc2CNC(=O)Nc2cc(C(F)(F)F)ccc2OC2CCNCC2)cc1 [Compound of Example 41, 4-(2-((3-(2-(piperidin-4-yloxy)-5-(trifluoromethyl)phenyl)ureido)methyl)phenoxy)benzamide]	35.2
CNC(=O)c1ccc(Oc2ccccc2CNC(=O)Nc2cccc(C(F)(F)F)c2)cc1 [Compound of Example 42]	21.5
CNC(=O)c1ccc(Oc2ccccc2CNC(=O)Nc2cc(C(F)(F)F)ccc2OC2COC2)cc1 [Compound of Example 43, 4-(2-((3-(2-(oxetan-3-yloxy)-5-(trifluoromethyl)phenyl)ureido)methyl)phenoxy)-N-methyl-benzamide]	78.5
NC(=O)c1cccc(Oc2ccccc2CNC(=O)Nc2cccc(C(F)(F)F)c2)c1 [Compound of Example 44]	23.7
CCOc1ccc(C(F)(F)F)cc1NC(=O)NCc1ccccc1Oc1ccc(C(N)=O)cc1 [Compound of Example 46]	22.5
NC(=O)c1ccc(Oc2ccccc2CNC(=O)Nc2cccc(C(F)(F)F)c2)nc1 [Compound of Example 47, 6-(2-((3-(3-(trifluoromethyl)phenyl)ureido)methyl)phenoxy)nicotinamide]	23.4
CNC(=O)c1ccc(Oc2ccccc2CNC(=O)Nc2cccc(C(F)(F)F)c2)nc1 [Compound of Example 48, N-methyl-6-(2-((3-(3-(trifluoromethyl)phenyl)ureido)methyl)phenoxy)nicotinamide]	29.1
NC(=O)c1ccc(Oc2ccccc2CNC(=O)Nc2cccc(Cl)c2)cc1 [Compound of Example 49, 4-(2-((3-(3-chlorophenyl)ureido)methyl)phenoxy)benzamide]	19.3

The next compounds have a lower IC50 than those just listed; values first:

IC50 [nM]	Structure (SMILES)
18.3	CCOc1ccc(Cl)cc1NC(=O)NCc1ccccc1Oc1ccc(C(N)=O)cc1 [Compound of Example 51]
12.3	COc1ccc(Cl)cc1NC(=O)NCc1ccccc1Oc1ccc(C(N)=O)cc1 [Compound of Example 50]
8.91	NC(=O)c1ccc(Oc2ccccc2CNC(=O)Nc2ccc(CN3CCNCC3)c(C(F)(F)F)c2)cc1 [Compound of Example 40, 4-(2-((3-(4-((piperazin-1-ylmethyl)-5-(trifluoromethyl)phenyl)ureido)methyl)phenoxy)benzamide hydrochloride]
4.64	CN1CCN(Cc2ccc(NC(=O)NCc3ccccc3Oc3ccc(C(N)=O)cc3)cc2C(F)(F)F)CC1 [Compound of Example 38, 4-(2-((3-(4-((4-methylpiperazin-1-yl)methyl)-3-(trifluoromethyl)phenyl)ureido)methyl)phenoxy)benzamide]
4.2	NC(=O)c1ccc(Oc2ccccc2CNC(=O)Nc2cc(CN3CCNCC3)cc(C(F)(F)F)c2)cc1 [Compound of Example 39, 4-(2-((3-(3-((piperazin-1-ylmethyl)-5-(trifluoromethyl)phenyl)ureido)methyl)phenoxy)benzamide hydrochloride]
